Data: patent US12116388B2, “Amylin receptor agonists” (Novo Nordisk A/S, priority 2022, dated 2024)
Starred links: 1 amine or outer side, 2 acyl side, 3 side chain; linkers in the order of their positions; H or OH if unused. Residues, ends and D or L forms follow the SMILES beside them. *: point of attachment. C18 diacid = O=C(O)CCCCCCCCCCCCCCCCC(=O)*; γGlu = O=C(O)[C@H](CCC(=O)[*:2])N[*:1]

Assays:
[1] = target: T1, human amylin receptor (hAMYR3) (Homo sapiens, UniProt O60896+P30988); test: Human amylin receptor (hAMYR3) in vitro potency assay, CRE-luciferase reporter in BHK cells; assay type: cell-based; conditions: BHK hAMYR3/CRE-Luc cells, 3 hours incubation, assay buffer with 1% ovalbumin
T1 construct: host or cells: BHK (Baby Hamster Kidney), Hollex-1 cell line further transfected with RAMP3
T1 sequence (O60896 24-148, one chain of several): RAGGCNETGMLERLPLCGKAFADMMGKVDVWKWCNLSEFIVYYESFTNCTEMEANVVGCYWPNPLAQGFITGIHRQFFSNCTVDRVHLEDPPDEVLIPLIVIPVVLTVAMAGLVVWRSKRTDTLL
Outline: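 BHK cells stably expressing human calcitonin receptor (a) plus RAMP3 and a CRE-luciferase reporter, seeded overnight, then exposed to 7-point 7-fold dilutions (often from ~10 nM) in DMEM/HEPES buffer with 1% ovalbumin for 3 h at 37 °C. Luciferase luminescence read after SteadyLite Plus addition.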

[2] = target: T2, human calcitonin receptor (hCTR) (Homo sapiens, UniProt P30988); test: Human calcitonin receptor (hCTR) in vitro potency assay, CRE-luciferase reporter in BHK cells; assay type: cell-based; conditions: BHK hCTR/CRE-Luc cells, 3 hours incubation, assay buffer with 1% ovalbumin; read-out: hCalcR potency, EC50
T2 construct: host or cells: BHK (Baby Hamster Kidney), Hollex-1 cell line
T2 sequence (P30988 25-474): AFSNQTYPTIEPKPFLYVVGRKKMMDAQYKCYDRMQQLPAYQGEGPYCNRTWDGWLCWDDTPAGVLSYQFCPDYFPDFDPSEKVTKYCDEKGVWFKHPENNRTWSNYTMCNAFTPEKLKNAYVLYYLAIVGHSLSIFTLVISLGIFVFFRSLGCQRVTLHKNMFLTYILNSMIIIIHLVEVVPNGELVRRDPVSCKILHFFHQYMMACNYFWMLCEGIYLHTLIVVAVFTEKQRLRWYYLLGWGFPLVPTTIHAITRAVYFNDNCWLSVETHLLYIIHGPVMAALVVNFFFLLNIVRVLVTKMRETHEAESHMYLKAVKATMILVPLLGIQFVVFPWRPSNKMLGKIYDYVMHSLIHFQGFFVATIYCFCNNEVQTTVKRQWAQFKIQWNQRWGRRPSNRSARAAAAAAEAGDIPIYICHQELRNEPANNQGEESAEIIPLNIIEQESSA
Outline: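 BHK cells stably co-expressing human calcitonin receptor and a CRE-luciferase reporter, seeded the day before, were exposed to 7-fold serial dilutions (7 concentrations, often starting near 10 nM) in DMEM/HEPES/1% ovalbumin buffer for 3 h at 37 °C. Luminescence was then read after SteadyLite Plus addition.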

Row | SMILES | EC50 [1] [pM] | EC50 [2] [pM]
1 | CC[C@H](C)[C@H](NC(=O)[C@@H]1CCCN1C(=O)CNC(=O)[C@H](Cc1ccccc1)NC(=O)[C@H](CC(N)=O)NC(=O)[C@H](CC(=O)O)NC(=O)[C@H](CO)NC(=O)[C@H](CO)NC(=O)[C@H](Cc1c[nH]cn1)NC(=O)[C@H](Cc1c[nH]cn1)NC(=O)[C@H](CC(C)C)NC(=O)[C@H](Cc1ccccc1)NC(=O)[C@H](CCC(=O)O)NC(=O)[C@H](C)NC(=O)[C@H](CC(C)C)NC(=O)[C@H](CCCNC(=N)N)NC(=O)[C@H](CCC(N)=O)NC(=O)[C@@H](NC(=O)[C@H](CCC(N)=O)NC(=O)[C@H](C)NC(=O)[C@@H](NC(=O)[C@H](CO)NC(=O)[C@H](CC(C)C)NC(=O)[C@H](Cc1c[nH]cn1)NC(=O)[C@H](CO)NC(=O)[C@H](C)NC(=O)CC[C@H](NC(=O)CCCCCCCCCCCCCCCCC(=O)O)C(=O)O)[C@@H](C)O)[C@@H](C)O)C(=O)N[C@@H](CC(C)C)C(=O)N1CCC[C@H]1C(=O)N1CCC[C@H]1C(=O)N[C@H](C(=O)N[C@@H](CC(=O)O)C(=O)N[C@H](C(=O)NCC(=O)N[C@@H](CO)C(=O)N[C@@H](CC(N)=O)C(=O)N[C@H](C(=O)N1CCC[C@H]1C(N)=O)[C@@H](C)O)C(C)C)[C@@H](C)O [Compound 21, N^1-[(4S)-4-carboxy-4-(17-carboxyheptadecanoylamino)butanoyl]-[Ala1,Ser2,His3,Leu4,Ser5,Ala7,Gln8,Glu14,His17,Asp21,Pro25,Pro28,Pro29,Asp31,Pro37]-human amylin] ({C18 diacid-γGlu}-ASHLSTAQTQRLAEFLHHSSDNFGPILPPTDVGSNTP-NH2) | 1.64 | 1.89
2 | CC[C@H](C)[C@H](NC(=O)[C@@H]1CCCN1C(=O)CNC(=O)[C@H](Cc1ccccc1)NC(=O)[C@H](Cc1c[nH]cn1)NC(=O)[C@H](Cc1c[nH]cn1)NC(=O)[C@H](CC(C)C)NC(=O)[C@H](Cc1ccccc1)NC(=O)[C@H](CCC(=O)O)NC(=O)[C@H](C)NC(=O)[C@H](CC(C)C)NC(=O)[C@H](CCCNC(=N)N)NC(=O)[C@H](CCC(N)=O)NC(=O)[C@@H](NC(=O)[C@H](CCC(N)=O)NC(=O)[C@H](C)NC(=O)[C@@H](NC(=O)[C@H](CO)NC(=O)[C@H](CC(C)C)NC(=O)[C@H](Cc1c[nH]cn1)NC(=O)[C@H](CO)NC(=O)[C@H](C)NC(=O)CC[C@H](NC(=O)CCCCCCCCCCCCCCCCC(=O)O)C(=O)O)[C@@H](C)O)[C@@H](C)O)C(=O)N[C@@H](CC(C)C)C(=O)N1CCC[C@H]1C(=O)N1CCC[C@H]1C(=O)N[C@H](C(=O)N[C@@H](CC(=O)O)C(=O)N[C@H](C(=O)NCC(=O)N[C@@H](CO)C(=O)N[C@@H](CCC(=O)O)C(=O)N[C@H](C(=O)N1CCC[C@H]1C(N)=O)[C@@H](C)O)C(C)C)[C@@H](C)O [Compound 28, N^1-[(4S)-4-carboxy-4-(17-carboxyheptadecanoylamino)butanoyl]-[Ala1,Ser2,His3,Leu4,Ser5,Ala7,Gln8,Glu14,His17,Pro25,Pro28,Pro29,Asp31,Glu35,Pro37],des-(19-22)-human amylin] ({C18 diacid-γGlu}-ASHLSTAQTQRLAEFLHHFGPILPPTDVGSETP-NH2) | 2.06 | 1.72

Further lines, results first:

Row | EC50 [1] [pM] | EC50 [2] [pM] | SMILES
3 | 1.62 | 1.58 | CC[C@H](C)[C@H](NC(=O)[C@@H]1CCCN1C(=O)CNC(=O)[C@H](Cc1ccccc1)NC(=O)[C@H](CC(N)=O)NC(=O)[C@H](CC(=O)O)NC(=O)[C@H](CO)NC(=O)[C@H](CO)NC(=O)[C@H](Cc1c[nH]cn1)NC(=O)[C@H](Cc1c[nH]cn1)NC(=O)[C@H](CC(C)C)NC(=O)[C@H](Cc1ccccc1)NC(=O)[C@H](CCC(=O)O)NC(=O)[C@H](C)NC(=O)[C@H](CC(C)C)NC(=O)[C@H](CCCNC(=N)N)NC(=O)[C@H](C)NC(=O)[C@@H](NC(=O)[C@H](CCC(N)=O)NC(=O)[C@H](C)NC(=O)[C@@H](NC(=O)[C@H](CO)NC(=O)[C@H](CC(C)C)NC(=O)[C@H](C)NC(=O)[C@H](CO)NC(=O)[C@H](C)NC(=O)CC[C@H](NC(=O)CCCCCCCCCCCCCCCCC(=O)O)C(=O)O)[C@@H](C)O)[C@@H](C)O)C(=O)N[C@@H](CC(C)C)C(=O)N1CCC[C@H]1C(=O)N1CCC[C@H]1C(=O)N[C@H](C(=O)N[C@@H](CC(=O)O)C(=O)N[C@H](C(=O)NCC(=O)N[C@@H](CO)C(=O)N[C@@H](CC(N)=O)C(=O)N[C@H](C(=O)N1CCC[C@H]1C(N)=O)[C@@H](C)O)C(C)C)[C@@H](C)O [Compound 23, N^1-[(4S)-4-carboxy-4-(17-carboxyheptadecanoylamino)butanoyl]-[Ala1,Ser2,Ala3,Leu4,Ser5,Ala7,Gln8,Ala10,Glu14,His17,Asp21,Pro25,Pro28,Pro29,Asp31,Pro37]-human amylin] ({C18 diacid-γGlu}-ASALSTAQTARLAEFLHHSSDNFGPILPPTDVGSNTP-NH2)
4 | 1.31 | 2.19 | CC[C@H](C)[C@H](NC(=O)[C@H](C)NC(=O)CNC(=O)[C@H](Cc1ccccc1)NC(=O)[C@@H]1CCCN1C(=O)[C@H](CC(=O)O)NC(=O)[C@H](CO)NC(=O)[C@H](CO)NC(=O)[C@H](Cc1c[nH]cn1)NC(=O)[C@H](Cc1c[nH]cn1)NC(=O)[C@H](CC(C)C)NC(=O)[C@H](Cc1ccccc1)NC(=O)[C@H](CCC(=O)O)NC(=O)[C@H](C)NC(=O)[C@H](CC(C)C)NC(=O)[C@H](CCCNC(=N)N)NC(=O)[C@H](CCC(N)=O)NC(=O)[C@@H](NC(=O)[C@H](CCC(N)=O)NC(=O)[C@H](C)NC(=O)[C@@H](NC(=O)[C@H](CO)NC(=O)[C@H](CC(C)C)NC(=O)[C@H](Cc1c[nH]cn1)NC(=O)[C@H](CO)NC(=O)[C@H](C)NC(=O)CC[C@H](NC(=O)CCCCCCCCCCCCCCCCC(=O)O)C(=O)O)[C@@H](C)O)[C@@H](C)O)C(=O)N1CCC[C@H]1C(=O)N[C@@H](CO)C(=O)N[C@@H](CO)C(=O)N[C@H](C(=O)N[C@@H](CC(=O)O)C(=O)N[C@H](C(=O)NCC(=O)N1CCC[C@H]1C(=O)N[C@@H](CC(N)=O)C(=O)N[C@H](C(=O)N1CCC[C@H]1C(N)=O)[C@@H](C)O)C(C)C)[C@@H](C)O [Compound 26, N^1-[(4S)-4-carboxy-4-(17-carboxyheptadecanoylamino)butanoyl]-[Ala1,Ser2,His3,Leu4,Ser5,Ala7,Gln8,Glu14,His17,Asp21,Pro22,Pro27,Asp31,Pro34,Pro37]-human amylin] ({C18 diacid-γGlu}-ASHLSTAQTQRLAEFLHHSSDPFGAIPSSTDVGPNTP-NH2)
5 | 2.68 | 1.78 | CC[C@H](C)[C@H](NC(=O)[C@H](C)NC(=O)CNC(=O)[C@H](Cc1ccccc1)NC(=O)[C@@H]1CCCN1C(=O)[C@H](CCC(=O)O)NC(=O)[C@H](CO)NC(=O)[C@H](CO)NC(=O)[C@H](Cc1c[nH]cn1)NC(=O)[C@H](Cc1c[nH]cn1)NC(=O)[C@H](CC(C)C)NC(=O)[C@H](Cc1ccccc1)NC(=O)[C@H](CCC(=O)O)NC(=O)[C@H](C)NC(=O)[C@H](CC(C)C)NC(=O)[C@H](CCCNC(=N)N)NC(=O)[C@H](CCC(N)=O)NC(=O)[C@@H](NC(=O)[C@H](CCC(N)=O)NC(=O)[C@H](C)NC(=O)[C@@H](NC(=O)[C@H](CO)NC(=O)[C@H](CC(C)C)NC(=O)[C@H](Cc1c[nH]cn1)NC(=O)[C@H](CO)NC(=O)[C@H](C)NC(=O)CC[C@H](NC(=O)CCCCCCCCCCCCCCCCC(=O)O)C(=O)O)[C@@H](C)O)[C@@H](C)O)C(=O)N1CCC[C@H]1C(=O)N[C@@H](CO)C(=O)N[C@@H](CO)C(=O)N[C@H](C(=O)N[C@@H](CCC(=O)O)C(=O)N[C@H](C(=O)NCC(=O)N1CCC[C@H]1C(=O)N[C@@H](CCC(=O)O)C(=O)N[C@H](C(=O)N1CCC[C@H]1C(N)=O)[C@@H](C)O)C(C)C)[C@@H](C)O [Compound 27, N^1-[(4S)-4-carboxy-4-(17-carboxyheptadecanoylamino)butanoyl]-[Ala1,Ser2,His3,Leu4,Ser5,Ala7,Gln8,Glu14,His17,Glu21,Pro22,Pro27,Glu31,Pro34,Glu35,Pro37]-human amylin] ({C18 diacid-γGlu}-ASHLSTAQTQRLAEFLHHSSEPFGAIPSSTEVGPETP-NH2)
